The values below come from patent US9862711B2, “Pyrazine derivatives as phosphatidylinositol 3-kinase inhibitors” (NOVARTIS AG, priority 2014, dated 2018).

What all share (type): cell-based
Assay [1] addresses PI 3-kinase alpha (Homo sapiens (Human), UniProt P42336). Nature of the assay: Cellular p-Akt (S473) SureFire assay, Rat-1_PI3Kalpha cells (Assay H). The note with it: p-AKT (Ser473) in Rat-1 cells expressing myr-HA-hp110 alpha, 1 h compound; read-out: Assay H PI3Kα IC50. An excerpt: (§1) Cellular Assays for PI 3-Kinase Alpha (H), Beta (I) and Delta (J)
(§2) AlphaScreen (Amplified Luminescent Proximity Homogeneous Assay, ALPHA, Perkin Elmer) is a non-radioactive bead-based proximity assay technology to study biomolecular interactions in a homogenous microtiter plate format. The brand name SureFire denotes AlphaScreen assays that are adapted to quantify the phosphorylation of endogenous cellular proteins in cell lysates, by using matched antibody pairs, which consist of an anti-phospho-kinase and an anti-kinase antibody. The assay allows characterization of kinase signaling in cells as well as measurement of kinase inhibitor effects.
(§3) Rat-1 cell lines stably overexpressing activated PI 3-kinase class I isoforms Rat-1 pBABEpuro Myr-HA-hp110 delta clone 5 (Rat-1_PI3Kdelta) and Rat-1 pBABEpuro Myr-HA-hp110 alpha clone 6 (Rat-1_PI3Kalpha) and Rat-1 pBABEpuro Myr-HA-hp110 beta (Rat-1_PI3beta) were cultivated in complete growth medium (DMEM high glucose, 10% (v/v) fetal bovine serum, 1% (v/v) MEM NEAA, 10 mM HEPES, 2 mM L-glutamine, puromycin (10 μg/mL for Rat-1_PI3Kdelta and Rat-1_PI3Kalpha, 4 ug/mL for Rat-1_PI3beta), 1% (v/v) Pen/Strep) to 90% confluency at 37° C./5% CO2/90% humidity in a humidified CO2 incubator and were split twice a week. The following materials were used for p-AKT(5473) detection in Rat-1 cell lysates: Dulbecco's modified Eagle's medium (DMEM) high glucose (Gibco Invitrogen, Basel, Switzerland, Cat. No. 41965), heat inactivated fetal bovine serum, qualified (HI FBS; Gibco Invitrogen, Basel, Switzerland, Lot. No. 16140), MEM non essential amino acids (NEAA; Gibco Invitrogen, Basel, Switzerland, Cat. No. 11140), HEPES (Gibco Invitrogen, Basel, Switzerland, Cat. No. 15630), penicillin/streptomycin (Pen/Strep, 100×; Gibco Invitrogen, Basel, Switzerland, Cat. No. 15140-122), L-glutamine (Gibco Invitrogen, Basel, Switzerland, Cat. No. 25030), puromycin (Sigma Aldrich, Buchs, Switzerland, Cat. No. P9620), DMSO (MERCK, Dietikon, Switzerland, Cat. No. 8.02912.2500), H2O, MilliQ-H2O unless otherwise stated (MILLIPORE QGARDOOR1, Millipore, Zug, Switzerland), bovine serum albumine (BSA; Sigma Aldrich, Buchs, Switzerland Cat. No. A8412), SureFire p-Akt 1/2 (Ser473) Assay Kit (Perkin Elmer, Schwerzenbach, Switzerland, Cat. No. TGRAS50K).
(§4) The p-Akt (S473) SureFire assay measures the phosphorylation of endogenous cellular Akt 1/2 at Ser473 in cell lysates. Using Rat-1 cells stably expressing myr-HA-tagged versions of the human PI3Kdelta, PI3Kalpha, or PI3Kbeta p110 catalytic subunit isoforms, the assay was developed as a two-plate protocol in a 384-well format.
(§5) For compound testing, the cells were seeded at a density of 4000 (Rat-1_PI3Kdelta), 7500 (Rat-1_PI3Kalpha), or 6200 (Rat-1_PI3Kbeta) cells in 20 μl complete growth medium into cell culture treated 384-well plates and were grown at 37° C./5% CO2/90% humidity for 24 h. Shortly before compound transfer, the complete medium was removed, 30 μl assay buffer (DMEM high glucose, 1×MEM NEAA, 10 mM HEPES, 2 mM L-glutamine, 0.1% (w/v) BSA) was added and 10 μl of the compound predilutions were transferred to the cells. After treatment with compound for 1 h, the cells were lysed by the addition of 20 μl lysis buffer supplemented with 0.24% (w/v) BSA. Detection of p-AKT (Ser473) was performed with the SureFire p-Akt 1/2 (Ser473) Assay Kit according to the manufacturer's instructions using 5 ul of cell lysate in a total detection volume of 12 μl.
(§6) IC50 values of the percentage inhibition of each compound at 8 concentrations (usually 10, 3.0, 1.0, 0.3, 0.1, 0.030, 0.010 and 0.003 μM) n=2 were derived by fitting a sigmoidal dose-response curve to a plot of assay readout over inhibitor concentration as described. All fits were performed with the program XLfit4 (ID Business Solutions, Guildford, UK).

Assay [2] has as its target PI 3-kinase beta (Homo sapiens (Human), UniProt P42338). Nature of the assay: Cellular p-Akt (S473) SureFire assay, Rat-1_PI3Kbeta cells (Assay I). As to conditions: p-AKT (Ser473) in Rat-1 cells expressing myr-HA-hp110 beta, 1 h compound; read-out: Assay I PI3Kβ IC50.
Description: as §1, §2, §3, §4, §5, §6

Assay [3] concerns the target PI 3-kinase delta (Homo sapiens (Human), UniProt O00329). In words: Cellular p-Akt (S473) SureFire assay, Rat-1_PI3Kdelta cells (Assay J). The note with it: p-AKT (Ser473) in Rat-1 cells expressing myr-HA-hp110 delta, 1 h compound; read-out: Assay J PI3Kδ IC50.
Description: as §1, §2, §3, §4, §5, §6

The subject of assay [4] is IL-8-induced neutrophil shape change in human whole blood. Nature of the assay: Whole blood neutrophil shape change assay (Assay L). As to conditions: 2 nM IL-8, neutrophil shape change by flow cytometry, read-out: Assay L WBSC IC50. The procedure:
Whole Blood Neutrophil Shape Change Assay (L)
A flow cytometry based method used to measure the inhibition of IL-8 (interleukin-8)-induced neutrophil shape change in human whole blood.
IL-8 was made up to 2 μM stocks in 0.1% bovine serum albumin/PBS and stored at −80° C. On the day IL-8 was diluted in PBS (phosphate buffered saline) 10 minutes before use. IL-8 was used at final concentration of 2 nM and a concentration range from […] to 200 nM for the donor dose response curve.
Assay fixative solution was prepared fresh each day from 10× concentrated CellFIX™ solution diluted 1:10 in sterile distilled water and then 1:4 with PBS. Assay fixative solution was kept on ice prior to use.
A 10× lysis buffer was prepared in advance by dissolving 20.75 g […] and 2.5 g KHCO3 in 250 ml sterile H2O. This 10× lysis buffer was filtered under sterile conditions and stored for up to two weeks at 4° C. On the day a 1× lysis solution was prepared with sterile distilled H2O and kept on ice prior to use.
The test compounds were prepared as 10 mM stock solutions in 100% DMSO and were stored at 4° C. Once in use for an assay 10 mM stock compounds were thawed and stored at RT protected from light. Compound dilutions were prepared fresh on the day. The first series of dilutions in 100% DMSO were done first thing in the morning. Only once blood had been collected and arrived in laboratory was the next set of dilutions into PBS carried out (1:10 PBS, 10% DMSO). This limited the exposure of diluted compound to plastic and made sure the exposure timing was consistent between assays. Compounds were added to the deep 96 well plates at 10× the final desired concentration (with addition of blood final [DMSO]=1%).
Table 3 illustrates the compound dilution series used in human whole blood neutrophil shape change assay.
On the day of running the assay, assay fixative buffer and 1× lysis solutions were prepared and stored on ice. Compound dilutions in 100% DMSO were prepared as described previously. Human whole blood was collected in K2 EDTA Vacutainers. Once blood was in the laboratory, compound dilutions into PBS were carried out as described previously and depicted in Table 1. 10 μl of 10× final compound concentration was added to appropriate wells of a deep 96-well plate except controls where 10 μl of 10% DMSO was added in place of compound, as outlined in the dilution series in Table 1. The outer wells of the deep well assay plate were filled with 1200 μl of sterile distilled H2O in an effort to limit edge effects (rows A1-H1, A1-A12, A12-H12). An IL-8 dose response was determined for each blood donor examined, to monitor the donor response to IL-8. At this step in assay preparation for the IL-8 dose response samples 10 μl of PBS was added to designated wells. In addition the assay window without DMSO was also assessed each day. For such samples at this step in assay preparation 10 μl of PBS was added in the place of 10% DMSO.
80 μl of whole blood was added to compound/10% DMSO/PBS and mixed once gently upon addition. Lids were placed on the 96 well plates and samples were incubated for 15 minutes at 37° C. in a water-bath.
Following the compound pre-incubation 10× final IL-8 was added to appropriate wells (10 μl of 20 nM working stock IL-8, final IL-8 concentration in blood=2 nM) and 10 μl of PBS was added to the un-stimulated controls. 10× final dose response range IL-8 was also added to designated wells (final concentration range on assay plate was 200 nM to 0.0005 nM, 1:5 serial dilution in PBS). The IL-8 and PBS were added to appropriate wells across all assay plates in the same sequence as the blood to compound addition. Once added to all assay plates, samples were mixed quickly once to ensure even distribution of IL-8. Samples were incubated for 5 minutes at 37° C. in a water-bath. Following the incubation sample plates were transferred to ice where 250 μl of chilled Assay Fixative Buffer was added promptly to all wells. […]

Sequence of PI 3-kinase beta (P42338 whole entry): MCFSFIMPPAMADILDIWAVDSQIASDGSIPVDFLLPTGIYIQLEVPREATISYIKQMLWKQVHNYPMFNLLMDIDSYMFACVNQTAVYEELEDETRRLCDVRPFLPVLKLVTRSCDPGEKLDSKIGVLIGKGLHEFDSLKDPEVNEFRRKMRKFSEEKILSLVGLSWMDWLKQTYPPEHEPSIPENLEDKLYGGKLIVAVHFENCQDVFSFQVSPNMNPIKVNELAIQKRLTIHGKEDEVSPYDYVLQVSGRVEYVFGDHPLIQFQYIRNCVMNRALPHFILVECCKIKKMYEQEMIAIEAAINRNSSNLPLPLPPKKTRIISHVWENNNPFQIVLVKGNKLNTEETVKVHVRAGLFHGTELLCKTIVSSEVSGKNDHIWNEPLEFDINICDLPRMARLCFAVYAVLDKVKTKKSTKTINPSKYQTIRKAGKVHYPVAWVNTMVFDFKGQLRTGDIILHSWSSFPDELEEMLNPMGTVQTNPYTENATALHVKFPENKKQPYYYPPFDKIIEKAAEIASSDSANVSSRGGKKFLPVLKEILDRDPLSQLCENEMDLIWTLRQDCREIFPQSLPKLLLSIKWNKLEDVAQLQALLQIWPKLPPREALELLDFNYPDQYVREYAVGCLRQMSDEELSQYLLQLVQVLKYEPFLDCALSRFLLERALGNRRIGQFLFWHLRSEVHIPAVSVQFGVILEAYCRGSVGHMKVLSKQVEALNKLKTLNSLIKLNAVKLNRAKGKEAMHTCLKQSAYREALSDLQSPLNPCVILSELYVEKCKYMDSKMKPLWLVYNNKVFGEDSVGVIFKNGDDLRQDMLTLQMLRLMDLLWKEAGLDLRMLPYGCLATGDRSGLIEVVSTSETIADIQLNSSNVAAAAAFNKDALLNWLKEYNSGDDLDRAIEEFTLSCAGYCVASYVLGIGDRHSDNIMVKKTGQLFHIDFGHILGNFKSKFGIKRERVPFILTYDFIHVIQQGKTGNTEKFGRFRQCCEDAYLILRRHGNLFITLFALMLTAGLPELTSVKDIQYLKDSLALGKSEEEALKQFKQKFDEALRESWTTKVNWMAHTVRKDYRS
Sequence of PI 3-kinase beta (Q63787 whole entry partner): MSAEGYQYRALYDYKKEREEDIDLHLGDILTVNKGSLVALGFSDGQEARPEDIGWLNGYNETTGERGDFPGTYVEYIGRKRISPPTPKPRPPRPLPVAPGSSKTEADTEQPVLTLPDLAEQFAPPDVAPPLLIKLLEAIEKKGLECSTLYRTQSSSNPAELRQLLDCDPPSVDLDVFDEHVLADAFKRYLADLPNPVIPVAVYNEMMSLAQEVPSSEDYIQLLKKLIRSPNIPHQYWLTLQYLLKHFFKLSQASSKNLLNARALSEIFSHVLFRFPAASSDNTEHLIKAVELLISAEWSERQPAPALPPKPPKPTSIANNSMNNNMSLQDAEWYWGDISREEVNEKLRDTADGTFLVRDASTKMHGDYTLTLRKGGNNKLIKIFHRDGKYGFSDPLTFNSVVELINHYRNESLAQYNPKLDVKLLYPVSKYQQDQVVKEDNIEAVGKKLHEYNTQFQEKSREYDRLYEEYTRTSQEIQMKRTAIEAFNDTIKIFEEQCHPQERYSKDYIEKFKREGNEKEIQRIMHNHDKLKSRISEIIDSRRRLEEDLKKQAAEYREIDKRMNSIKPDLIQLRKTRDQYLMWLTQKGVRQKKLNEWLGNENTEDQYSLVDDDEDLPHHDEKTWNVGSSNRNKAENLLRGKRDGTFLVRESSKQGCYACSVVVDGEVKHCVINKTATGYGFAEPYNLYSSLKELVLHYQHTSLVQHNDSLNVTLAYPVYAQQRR
Sequence of PI 3-kinase alpha (P42336 whole entry): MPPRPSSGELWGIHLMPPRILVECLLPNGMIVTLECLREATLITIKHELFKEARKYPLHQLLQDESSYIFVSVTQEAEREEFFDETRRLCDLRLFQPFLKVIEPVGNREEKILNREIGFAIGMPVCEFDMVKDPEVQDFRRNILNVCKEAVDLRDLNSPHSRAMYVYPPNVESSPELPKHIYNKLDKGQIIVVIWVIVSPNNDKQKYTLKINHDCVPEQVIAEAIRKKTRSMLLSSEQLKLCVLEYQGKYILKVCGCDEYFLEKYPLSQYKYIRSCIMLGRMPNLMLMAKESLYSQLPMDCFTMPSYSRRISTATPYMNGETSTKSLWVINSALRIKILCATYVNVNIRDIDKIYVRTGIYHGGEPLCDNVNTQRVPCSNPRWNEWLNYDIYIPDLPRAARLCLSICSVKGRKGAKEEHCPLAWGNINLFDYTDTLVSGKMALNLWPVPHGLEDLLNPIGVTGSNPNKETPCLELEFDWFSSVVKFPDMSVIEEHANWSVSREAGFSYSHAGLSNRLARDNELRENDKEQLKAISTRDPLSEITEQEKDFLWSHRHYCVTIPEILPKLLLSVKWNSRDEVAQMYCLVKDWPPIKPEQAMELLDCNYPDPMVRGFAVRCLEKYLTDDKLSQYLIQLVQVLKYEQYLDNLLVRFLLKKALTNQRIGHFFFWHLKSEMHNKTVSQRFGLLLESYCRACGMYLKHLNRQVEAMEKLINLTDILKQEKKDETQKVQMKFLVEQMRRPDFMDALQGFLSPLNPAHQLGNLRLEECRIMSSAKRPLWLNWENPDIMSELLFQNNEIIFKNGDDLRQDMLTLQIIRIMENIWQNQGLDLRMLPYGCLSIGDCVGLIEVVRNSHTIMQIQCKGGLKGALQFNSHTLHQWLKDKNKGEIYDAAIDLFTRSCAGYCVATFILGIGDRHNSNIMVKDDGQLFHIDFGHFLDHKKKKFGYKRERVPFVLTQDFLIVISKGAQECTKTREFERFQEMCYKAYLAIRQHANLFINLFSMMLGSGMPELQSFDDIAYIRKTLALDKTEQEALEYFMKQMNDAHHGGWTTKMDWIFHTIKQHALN
Sequence of PI 3-kinase alpha (Q63787 whole entry partner): as the sequence (Q63787 whole entry partner) above
Sequence of PI 3-kinase delta (O00329 whole entry): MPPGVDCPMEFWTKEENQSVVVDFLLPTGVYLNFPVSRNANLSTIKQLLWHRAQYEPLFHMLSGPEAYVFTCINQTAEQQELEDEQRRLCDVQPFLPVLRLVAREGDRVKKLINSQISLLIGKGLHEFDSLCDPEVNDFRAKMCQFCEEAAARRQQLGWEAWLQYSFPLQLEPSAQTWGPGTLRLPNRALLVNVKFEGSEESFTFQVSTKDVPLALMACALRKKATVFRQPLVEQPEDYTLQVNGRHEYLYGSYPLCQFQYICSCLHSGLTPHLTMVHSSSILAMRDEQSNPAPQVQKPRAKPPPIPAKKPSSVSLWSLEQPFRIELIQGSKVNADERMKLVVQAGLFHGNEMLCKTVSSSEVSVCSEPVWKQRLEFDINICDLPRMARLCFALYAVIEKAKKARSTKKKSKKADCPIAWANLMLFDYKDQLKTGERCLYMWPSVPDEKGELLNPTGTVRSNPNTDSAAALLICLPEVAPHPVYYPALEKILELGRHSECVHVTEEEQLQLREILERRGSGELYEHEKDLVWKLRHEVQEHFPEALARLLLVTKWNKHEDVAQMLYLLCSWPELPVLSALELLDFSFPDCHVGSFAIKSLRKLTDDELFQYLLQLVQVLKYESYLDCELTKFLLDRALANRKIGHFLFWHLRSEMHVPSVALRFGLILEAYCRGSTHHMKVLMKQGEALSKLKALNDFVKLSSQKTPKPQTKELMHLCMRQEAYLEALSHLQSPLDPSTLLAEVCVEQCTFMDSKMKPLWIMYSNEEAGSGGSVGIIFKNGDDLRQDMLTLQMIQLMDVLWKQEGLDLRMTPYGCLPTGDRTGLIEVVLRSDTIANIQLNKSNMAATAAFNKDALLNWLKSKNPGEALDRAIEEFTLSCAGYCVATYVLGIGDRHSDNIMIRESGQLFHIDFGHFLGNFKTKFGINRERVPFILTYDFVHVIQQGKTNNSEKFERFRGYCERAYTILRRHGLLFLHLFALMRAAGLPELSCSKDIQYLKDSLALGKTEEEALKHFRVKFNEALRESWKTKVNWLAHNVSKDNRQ
Sequence of PI 3-kinase delta (Q63787 whole entry partner): as the sequence (Q63787 whole entry partner) above

On to `Cc1ccc(S(=O)(=O)NC2CC3(CC(O)C3)C2)cc1-c1cncc(-c2cn(C)nc2C)n1` (stereo not shown) [Example 6, 3-[6-(1,3-Dimethyl-1H-pyrazol-4-yl)-pyrazin-2-yl]-N-(6-hydroxy-spiro[3.3]hept-2-yl)-4-methyl-benzenesulfonamide], for which the IC50 is 709 nM in assay [1], 1050 nM in assay [2], 515 nM in assay [3] and 374 nM in assay [4].

Take `Cc1ccc(S(=O)(=O)NC[C@H]2C[C@@H](O)C2)cc1-c1cncc(-c2cn(C)nc2C)n1` [Example 7, Cis 3-[6-(1,3-Dimethyl-1H-pyrazol-4-yl)-pyrazin-2-yl]-N-(3-hydroxy-cyclobutylmethyl)-4-methyl-benzenesulfonamide]: the IC50 in assay [4] is 212 nM.

In the case of `Cc1ccc(S(=O)(=O)N[C@H]2CC[C@H](O)CC2)cc1-c1cncc(-c2csc(CN3CCOCC3)c2)n1` [Example 12, Trans N-(4-Hydroxy-cyclohexyl)-4-methyl-3-[6-(5-morpholin-4-ylmethyl-thiophen-3-yl)-pyrazin-2-yl]-benzenesulfonamide], the IC50 in assay [1] was found to be 1140 nM; in assay [2] it was 1110 nM; in assay [3], 306 nM; in assay [4], 830 nM.

With `Cc1cc(-c2cncc(-c3cc(S(=O)(=O)NC[C@H]4C[C@@H](O)C4)ccc3C)n2)n(C)n1` [Example 13, Cis 3-[6-(2,5-Dimethyl-2H-pyrazol-3-yl)-pyrazin-2-yl]-N-(3-hydroxy-cyclobutylmethyl)-4-methyl-benzenesulfonamide], the IC50 in assay [4] is 847 nM.
